Assay results: US20250296909A1, “NOVEL BENZENE DERIVATIVE AND IMMUNOSUPPRESSION-RELATED USE THEREOF” (PROVIBIO CO., LTD., priority 2021, published 2025)
Where two headings read alike, the source gives them in different places.

Columns and labels:
[1] = tested on: T lymphocyte cell line Jurkat E6-1; assay: Cytotoxicity experiment (CCK-8, relative cell survival); assay type: cell-based; details: 24 hours, untreated cells = 100%
Method: To evaluate the cytotoxicity of the compound according to the present invention, the following experiment was conducted.
The T lymphocyte cell line Jurkat E6-1, purchased from the Korean Cell Line Bank, was cultured in RPMI-1640 medium comprising 10% FBS, 100 U/mL penicillin, and 100 μg/mL streptomycin. After culturing, the cells were harvested and centrifuged at 1,300 rpm for 5 minutes. After removal of the supernatant, the cells were resuspended in the same medium at a concentration of approximately 2.2×10^5 cells/mL, and 90 μL of the cell suspension was distributed per well into a 96-well plate (Costar 96 well cell culture plate, Corning). After treating 10 μL of each compound at different concentrations onto the respective wells of the plate, it was cultured for 24 hours at 37° C. in a 5% CO2 incubator. Subsequently, 10 μL of CCK-8 was added to each well, and it was cultured again for 2 hours at 37° C. in a 5% CO2 incubator. Absorbance was then measured at 450 nm to determine the relative cell survival rate compared to untreated cells, as shown in Table 4.
The values listed in Table 4 represent the relative cell survival rates in the groups treated with each compound at different concentrations, with the cell survival rate of untreated cells set as 100%.

spleen T cells = assay: T cell proliferation inhibition (CFSE, FACS), CD3/CD28-activated spleen T cells; assay type: cell-based, C57BL/6 mice; details: for inhibition at 10 µM / inhibition at 30 µM / inhibition at 50 µM: Mus musculus, T-cell, read-out: Proliferation inhibition rate (%)
Method: To investigate whether the compounds obtained in the Preparation Example have an inhibitory effect on T cell proliferation, the T cell proliferation was determined ex vivo using the fluorescent dye carboxyfluorescein diacetate succinimidyl ester (CFSE), which binds to intracellular molecules by covalent bonds.
Spleens were harvested and minced from C57BL/6 mice at 7 weeks of age, and then single cells were isolated using a strainer (40 μm pore size, SPL). Red blood cells were removed using ACK (Ammonium-Chloride-Potassium) lysis buffer to isolate only leukocytes. Subsequently, CD90.2 microbeads (130-121-278, Miltenyi Biotech.) were added, and subjected to react at 4° C. for 20 minutes. After that, spleen T cells were isolated using a MACS Magnetic Stand and LS column. The isolated T cells from the spleen were resuspended in 1 mL of Free media (RPMI-1640+200 U/mL penicillin+200 μg/mL streptomycin), followed by the addition of 0.3 μL of CFSE (10 mM), and reacted at 37° C. for 5 minutes. Subsequently, 10 mL of Free media was added to stop the reaction, and the cells were centrifuged to obtain the cell pellet. RPMI 1640 medium containing 10% FBS, 100 U/mL penicillin, and 100 μg/mL streptomycin was added to suspend the cells, and 2×10^5 cells per well were seeded into a 96-well plate and T cells were activated by treatment with CD3 and CD28 antibodies (each at 0.5 μg/mL).
The compound diluted in DMSO was treated in triplicate at concentrations of 10 μM, 30 μM, and 50 μM, respectively. After incubation at 37° C. with 5% CO2 for 3 days, cell proliferation levels were determined using a FACS Canto machine.
In the FACS graph of FIG. 1, the y-axis represents the quantity (number) of cells, while the x-axis represents the fluorescence level of the cells. […] This reduction in CFSE fluorescence results in a leftward shift along the x-axis in the graph. This indicates cell proliferation.
To collectively indicate the proliferation inhibition rate for the experimental results, the relative value of the proliferation amount after compound administration to the proliferation amount after CD3/CD28+DMSO administration was calculated. Subsequently, it was converted into an inhibition amount and expressed as a percentage, thereby determining the proliferation inhibition rate. Specifically, the proliferation inhibition rate was calculated as follows: […]

[2] = 72 h, Table 2, 10 μM, 3 days, relative to CD3/CD28+DMSO
[3] = 72 h, Table 2, 30 μM, 3 days, relative to CD3/CD28+DMSO
[4] = 72 h, Table 2, 50 μM, 3 days, relative to CD3/CD28+DMSO
[5] = Table 2, 10 μM, 3 days, relative to CD3/CD28+DMSO
[6] = Table 2, 30 μM, 3 days, relative to CD3/CD28+DMSO
[7] = Table 2, 50 μM, 3 days, relative to CD3/CD28+DMSO

SMILES | Relative cell survival rate (%) ([1]; 10 μM) | Relative cell survival rate (%) ([1]; 20 μM) | Relative cell survival rate (%) ([1]; 30 μM) | Relative cell survival rate (%) ([1]; 50 μM) | inhibition at 10 µM (spleen T cells; [2]) [%] | inhibition at 30 µM (spleen T cells; [3]) [%] | inhibition at 50 µM (spleen T cells; [4]) [%] | Proliferation inhibition rate (%) (spleen T cells; [5]) | Proliferation inhibition rate (%) (spleen T cells; [6]) | Proliferation inhibition rate (%) (spleen T cells; [7]) | inhibition at 10 µM (spleen T cells; Table 3 (compounds not belonging to Formula 1), 10 μM) [%] | inhibition at 30 µM (spleen T cells; Table 3 (compounds not belonging to Formula 1), 30 μM) [%] | inhibition at 50 µM (spleen T cells; Table 3 (compounds not belonging to Formula 1), 50 μM) [%] | cell proliferation read by FACS (FIG. 2) (spleen T cells; concentrations ranging from 10 to 30 μM)
CCCCCCCCCCCCNC(=O)c1ncccc1N [Compound 67] | 94 | 93 | 93 | 92 | 35 | 88 | 100 |  |  |  |  |  |  | 
CCCCCCCCCCCCNC(=O)c1ccncc1N [Compound 68] | 92 | 91 | 88 | 82 | 57 | 67 | 100 |  |  |  |  |  |  | 
CCCCCCCCCCCCNC(=O)c1cccnc1O [Compound 70] | 119 | 122 | 124 | 125 | 29 | 78 | 98 |  |  |  |  |  |  | 
CCCCCCCCCCCCNC(=O)c1cnccc1N [Compound 71] | 101 | 94 | 92 | 88 | 100 | 100 | 100 |  |  |  |  |  |  | 
CCCCCCCCCCCCNC(=O)c1ncccc1Br [Compound 73] | 94 | 97 | 98 | 104 | 32 | 76 | 86 |  |  |  |  |  |  | 
CCCCCCCCNC(=O)c1cccnc1N [Compound 74] | 101 | 84 | 81 | 77 | 66 | 91 | 95 |  |  |  |  |  |  | 
CCCCCCCCCCCCNC(=O)c1cccnc1Br [Compound 76] | 115 | 95 | 92 | 70 |  |  |  | 36 | 49 | 65 |  |  |  | 
CCCCCCCCCCCCNC(=O)c1cccnc1C(F)(F)F [Compound 77] | 116 | 124 | 123 | 123 |  |  |  | 24 | 47 | 66 |  |  |  | 
CCCCNC(=O)c1ccccc1F [Compound 81] | 103 | 105 | 107 | 108 |  |  |  |  |  |  | 0 | 2 | 22 | 
CCCCCCCCNCCCNC(=O)c1nccnc1Cl [Compound 82] | 95 | 90 | 97 | 88 | 60 | 80 | 85 |  |  |  |  |  |  | 
CCCCCCCCCCCCNC(=O)c1ccccc1-n1cccc1 [Compound 84] | 96 | 94 | 96 | 94 | 89 | 96 | 100 |  |  |  |  |  |  | inhibition of cell proliferation
